In the assay the test system is neutrophils. Put plainly: Neutrophil chemotaxis assay. The assay is classed as cell-based. The note with it: 1.5 h; inhibition of neutrophil chemotaxis; chemoattractants 0.1-5 nM; 90 minutes migration at 37° C.; read-out: IC50 values in the above assay. The protocol:
The in vitro inhibitory properties of these compounds are determined in the neutrophil chemotaxis assay. Assays were performed in a 96-well plate format according to previously published method (Frevert C W, et al., J Immunolog. Methods, 1998, 213, 41). 96-well chemotaxis chambers 5 μm were obtained from Neuro Probe, all cell buffers were obtained from Invitrogen Paisley, UK, dextran-T500 and Ficoll-Paque Plus™ density gradient centrifugation media were purchased from Pharmacia Biotech Buckinghamshire, UK. Calcein-AM dye was obtained from Molecular Probes. Neutrophils were isolated as previously described (Haslett, C., et al. Am J Path., 1985, 119:101). Citrated whole blood was mixed with 4% (w/v) dextran-T500 and allowed to stand on ice for 30 minutes to remove erythrocytes. Granulocytes (PMN) were separated from peripheral blood mononuclear cells by layering 15 ml of cell suspension onto 15 ml Ficoll-Paque PLUS density gradient and centrifuged at 250×g for 25 minutes. […] The labelled cells were washed with RPMI without phenol red+0.1% bovine serum albumin, prior to use the cells were counted and adjusted to a final concentration of 5×10^6 cells/ml. […] At the end of the incubation period, migrated cells were quantified using a multi-well fluorescent plate reader (Fluoroskan II™, Labsystems) at 485 nm excitation and 538 nm emission. […]

Molecules are shown by their SMILES.

For `N#Cc1cc(O)c2[nH]c(Nc3cccc(Cl)c3Cl)nc2c1` [Example 2, 2-(2,3-Dichloro-phenylamino)-7-hydroxy-1H-benzoimidazole-5-carbonitrile], the IC50 came out at 322 nM.

For the origin of these results see patent US20090298824A1, “Organic compounds” (priority 2004, published 2009).
